From ChEMBL document CHEMBL4219064, “Identification of novel quinazolinedione derivatives as RORγt inverse agonist” (Bioorg Med Chem, 2018)
Converted amounts (≈) assume the structure as drawn.

Columns and labels:
[1] = Lipophilicity, log D of the compound at pH 7.4; format: physicochemical; conditions: buffer
[2] = Clearance in rat at 1 mg/kg, po or 0.1 mg/kg, iv; format: ADME, organism-based; conditions: in vivo
[3] = Oral bioavailability in rat at 1 mg/kg; format: ADME, organism-based; conditions: in vivo
[4] = AUC in rat at 1 mg/kg, po; format: ADME, organism-based; conditions: in vivo
[5] = Kinetic solubility of the compound in second fluid of disintegration test of the Japanese Pharmacopoeia at pH 6.8 by HPLC analysis
Rattus norvegicus = assay: In vivo inverse agonist activity at RORgammat in po dosed Lewis rat experimental autoimmune encephalomyelitis model assessed as inhibition of IL-17A mRNA levels in popliteal lymph nodes administered twice daily for 5 days by qRT-PCR analysis; format: functional; conditions: 120 h, read-out: MED
tissue or blood = conditions: Rattus norvegicus, Lewis
Description: Inverse agonist activity at RORgammat in Lewis rat whole blood assessed as inhibition of IL-17A production incubated for 1 hr followed by PMA/ionomycin stimulation measured after 24 hrs by ELISA

[6] = molecular target: T1, Nuclear receptor ROR-gamma (Homo sapiens, UniProt P51449); assay: Inverse agonist activity at RORgammat (unknown origin) expressed in human Jurkat cells assessed as inhibition of transcriptional activity after overnight incubation by human IL-17 ROR response element driven-bright-glo luciferase reporter gene assay; format: cell-based
T1 sequence (P51449 whole entry): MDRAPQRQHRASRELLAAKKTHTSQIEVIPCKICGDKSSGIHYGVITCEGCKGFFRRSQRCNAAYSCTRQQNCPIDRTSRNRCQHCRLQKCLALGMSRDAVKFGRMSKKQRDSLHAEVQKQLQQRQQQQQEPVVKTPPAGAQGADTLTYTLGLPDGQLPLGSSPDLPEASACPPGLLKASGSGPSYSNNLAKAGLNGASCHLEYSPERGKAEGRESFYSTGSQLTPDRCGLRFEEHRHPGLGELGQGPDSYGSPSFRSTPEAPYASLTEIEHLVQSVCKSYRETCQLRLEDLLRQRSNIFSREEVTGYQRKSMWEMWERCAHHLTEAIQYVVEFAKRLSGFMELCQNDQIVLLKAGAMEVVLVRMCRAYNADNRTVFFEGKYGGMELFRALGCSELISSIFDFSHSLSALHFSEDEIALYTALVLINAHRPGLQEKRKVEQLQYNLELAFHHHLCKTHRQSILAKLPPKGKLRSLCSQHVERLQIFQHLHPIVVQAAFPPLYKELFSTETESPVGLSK

[7] = molecular target: T1, Nuclear receptor ROR-gamma; assay: Displacement of BODIPY-labeled-(R)-N-(2-(3,5-difluoro-4-(trimethylsilyl)phenylamino)-1-(4-(methoxymethyl)phenyl)-2-oxoethyl)-5-(2-((1-(difluoroboryl)-3,5-dimethyl-1H-pyrrol-2-yl)methylene)-2H-pyrrol-5-yl)pentanamide from human His-tagged RORgammat after 20 mins by TR-FRET assay

| Compound | clearance [2] [L/h/kg] | bioavailability [3] [%] | AUC [4] [µg·h/mL] | solubility kinetic [5] [µg/mL] | further results |
| --- | --- | --- | --- | --- | --- |
| CCn1c(=O)c2cc(NC(=O)CC(C)CC(=O)Nc3ccc(C#N)c(Cl)c3)ccc2n(CC)c1=O (racemic) | 1.61 | 6.2 | 0.039 | 42 (≈ 84.7 µM) | logD [1]: 2.99 |
| CCn1c(=O)c2cc(NC(=O)CC(C)CC(=O)Nc3ccc(C#N)c(Cl)c3)ccc2n(CC2CC2)c1=O (racemic) | 1.7 | 5.5 | 0.033 | – | – |
| CCC1Oc2cc(NC(=O)CC(C)CC(=O)Nc3ccc(C#N)c(Cl)c3)ccc2N(CC)C1=O (racemic) | – | – | – | 5.6 (≈ 11.6 µM) | – |
| CCn1c2ccccc2c2cc(NC(=O)CC(C)CC(=O)Nc3ccc(C#N)c(Cl)c3)ccc21 (racemic) | – | – | – | 0.15 (≈ 0.317 µM) | logD [1]: 3.76 |
| CCn1c(=O)oc2cc(NC(=O)CC(C)CC(=O)Nc3ccc(C#N)c(Cl)c3)ccc21 (racemic) | – | – | – | 0.9 (≈ 2.04 µM) | – |
| CCN1C(=O)COc2cc(NC(=O)CC(C)CC(=O)Nc3ccc(C#N)c(Cl)c3)ccc21 (racemic) | – | – | – | 12 (≈ 26.4 µM) | – |
| CCn1c2c(c3cc(NC(=O)CC(C)CC(=O)Nc4ccc(C#N)cc4)ccc31)CCCC2 (racemic) | – | – | – | 0.06 (≈ 0.136 µM) | – |
| CCN1C(=O)C(C)Oc2cc(NC(=O)CC(C)CC(=O)Nc3ccc(C#N)c(Cl)c3)ccc21 (racemic) | – | – | – | 23 (≈ 49 µM) | logD [1]: 2.66 |
| CCn1c(=O)n(CC2CC2)c(=O)c2cc(NC(=O)CC(C)CC(=O)Nc3ccc(C#N)c(Cl)c3)ccc21 (racemic) | 2.64 | 2.7 | 0.01 | – | – |
| CC(CC(=O)Nc1ccc(C#N)cc1)CC(=O)Nc1ccc2[nH]c3c(c2c1)CCCC3 (racemic) | – | – | – | 0.19 (≈ 0.458 µM) | – |
| CC(CC(=O)Nc1ccc(C#N)c(Cl)c1)CC(=O)Nc1ccc2c(c1)c(=O)n(CC1CC1)c(=O)n2CC1CC1 (racemic) | 0.672 | 7.1 | 0.106 | – | minimal effective dose (Rattus norvegicus): 100 mg/kg; IC50 (tissue or blood): 0.057 µM |
| CCn1c2ccccc2c2cc(NC(=O)CC(C)CC(=O)Nc3ccccc3C#N)ccc21 (racemic) | – | – | – | – | IC50 [6]: > 30 µM; IC50 [7]: > 10 µM |
| CCn1ccc2cc(NC(=O)CC(C)CC(=O)Nc3ccc(C#N)c(Cl)c3)ccc21 (racemic) | – | – | – | 0.1 (≈ 0.236 µM) | – |
